PMC4237513 (European Journal of Medicinal Chemistry, 2014)
Like-named read-outs stand apart in the source and are kept apart here.

Columns and labels:
in vitro = conditions: chlorocebus sabaeus
yellow fever virus (YFV) = experiment: microbe, parasite or virus in culture; assay type: cell-based; conditions: for EC50: read-out: Yellow fever EC50
dengue virus (DENV) = experiment: microbe, parasite or virus in culture; assay type: cell-based; conditions: for EC50: read-out: Dengue EC50
[1] = Yellow fever virus, Vero B, 168 h

SMILES	CC50 (in vitro; Dengue CC50)	CC50 (in vitro; Yellow fever CC50)	EC50 (yellow fever virus (YFV); [1])	EC50 (dengue virus (DENV); Dengue virus, Vero B, 168 h)	also measured
O=C(NCc1ccc(-c2cccnc2)cc1)c1nccnc1C(=O)Nc1ccc(F)cc1 [20c, N^2-(4-fluorophenyl)-N^3-(4-(pyridin-3-yl)benzyl) pyrazine-2,3-dicarboxamide]	> 115 µM	> 116 µM	8.9 µM	2.99 µM	–
Cc1ccc(NC(=O)c2nc[nH]c2C(=O)NCc2ccccc2)c(-c2ccco2)c1 [15m, N^5-benzyl-N^4-(2-(furan-2-yl)-4-methylphenyl)-1H-imidazole-4,5-dicarboxamide]	> 125 µM	–	–	> 125 µM	DENV inhibitory activity in words (dengue virus (DENV)): annihilated the inhibitory properties
Cc1ccc(NC(=O)c2nccnc2C(=O)NCc2ccc(-c3ccncc3)cc2)cc1 [20h, N^2-(4-(pyridin-4-yl)benzyl)-N^3-(p-tolyl) pyrazine-2,3-dicarboxamide]	–	> 110 µM	36.8 µM	16.6 µM	CC50 at 168 h (in vitro; Dengue CC50): 74.7 µM
O=C(NCc1ccccc1-c1ccncc1)c1nccnc1C(=O)Nc1ccc(F)cc1 [20f, N^2-(4-fluorophenyl)-N^3-(2-(pyridin-4-yl)benzyl) pyrazine-2,3-dicarboxamide]	> 118 µM	> 127 µM	21.3 µM	40.7 µM	fold decrease in activity against YFV (yellow fever virus (YFV)): 6 fold; fold decrease in activity against DENV (dengue virus (DENV)): 20 fold
Cc1ccc(NC(=O)c2nc[nH]c2C(=O)Nc2ccccc2)c(-c2ccsc2)c1 [15j, N^4-(4-methyl-2-(thiophen-3-yl)phenyl)-N^5-phenyl-1H-imidazole-4,5-dicarboxamide]	> 124 µM	> 120 µM	9.2 µM	> 124 µM	–
Cc1ccc(NC(=O)c2nccnc2C(=O)NCc2ccc(-c3cccnc3)cc2)cc1 [20j, N^2-(4-(pyridin-3-yl)benzyl)-N^3-(p-tolyl) pyrazine-2,3-dicarboxamide]	> 116 µM	> 124 µM	73.1 µM	6.75 µM	–
Cc1ccc(NC(=O)c2nccnc2C(=O)Nc2ccc(C)cc2-c2ccncc2)cc1 [20n, N^2-(4-methyl-2-(pyridin-4-yl)phenyl)-N^3-(p-tolyl) pyrazine-2,3-dicarboxamide]	> 119 µM	> 118 µM	30.9 µM	11.9 µM	–
Cc1cnc(NC(=O)c2[nH]cnc2C(=O)Nc2ccccc2)c(-c2ccc(C)s2)c1 [15o, N^5-(5-methyl-3-(5-methylthiophen-2-yl)pyridin-2-yl)-N^4-phenyl-1H-imidazole-4,5-dicarboxamide]	–	> 119 µM	> 120 µM	> 120 µM	CC50 at 168 h (in vitro; Dengue CC50): 26.4 µM; DENV inhibitory activity in words (dengue virus (DENV)): inactive
O=C(NCc1ccc(-c2ccncc2)cc1)c1nc[nH]c1C(=O)Nc1ccc(F)cc1 [15g, N^5-(4-fluorophenyl)-N^4-(4-(pyridin-4-yl)benzyl)-1H-imidazole-4,5-dicarboxamide]	> 120 µM	> 120 µM	> 120 µM	> 120 µM	–
Cc1ccc(NC(=O)c2nc[nH]c2C(=O)Nc2ccc(F)cc2)c(-c2ccco2)c1 [15i, N^5-(4-fluorophenyl)-N^4-(2-(furan-2-yl)-4-methylphenyl)-1H-imidazole-4,5-dicarboxamide]	> 124 µM	–	–	> 124 µM	–
Cc1ccc(NC(=O)c2nccnc2C(=O)Nc2ccc(F)cc2)c(-c2cccnc2)c1 [20b, N^2-(4-fluorophenyl)-N^3-(4-methyl-2-(pyridin-3-yl)phenyl) pyrazine-2,3-dicarboxamide]	> 118 µM	> 118 µM	13.1 µM	0.93 µM	DENV inhibitory activity in words (dengue virus (DENV)): strongly inhibiting
Cc1ccc(NC(=O)c2nccnc2C(=O)Nc2ccccc2-c2ccncc2)cc1 [20k, N^2-(2-(pyridin-4-yl)phenyl)-N^3-(p-tolyl) pyrazine-2,3-dicarboxamide]	> 122 µM	> 125 µM	12.5 µM	4.71 µM	–
Cc1ccc(NC(=O)c2nccnc2C(=O)Nc2ccc(F)cc2)c(-c2ccncc2)c1 [20g, N^2-(4-fluorophenyl)-N^3-(4-methyl-2-(pyridin-4-yl)phenyl)pyrazine-2,3-dicarbox amide]	> 117 µM	> 125 µM	48.4 µM	> 117 µM	–
O=C(NCc1ccccc1-c1ccncc1)c1nc[nH]c1C(=O)Nc1ccc(F)cc1 [15c, N^5-(4-fluorophenyl)-N^4-(2-(pyridin-4-yl)benzyl)-1H-imidazole-4,5-dicarboxami-de]	–	> 120 µM	3.9 µM	1.92 µM	CC50 at 168 h (in vitro; Dengue CC50): 50.1 µM; EC50 (dengue virus (DENV)): 1.93 µM
Cc1ccc(NC(=O)c2nccnc2C(=O)Nc2ccc(C)cc2-c2cccnc2)cc1 [20i, N^2-(4-methyl-2-(pyridin-3-yl)phenyl)-N^3-(p-tolyl) pyrazine-2,3-dicarboxamide]	–	–	18.4 µM	10.6 µM	CC50 at 168 h (in vitro; Dengue CC50): 47.5 µM; CC50 at 168 h (in vitro; Yellow fever CC50): 75.5 µM
Cc1ccc(NC(=O)c2nccnc2C(=O)Nc2ccccc2-c2cccnc2)cc1 [20l, N^2-(2-(pyridin-3-yl)phenyl)-N^3-(p-tolyl) pyrazine-2,3-dicarboxamide]	> 128 µM	> 122 µM	> 122 µM	14.6 µM	–
Cc1cc(-c2ccccc2NC(=O)c2nc[nH]c2C(=O)Nc2ccc(F)cc2)[nH]n1 [15b, N^5-(4-fluorophenyl)-N^4-(2-(3-methyl-1H-pyrazol-5-yl)phenyl)-1H-imidazole-4,5-dicarboxamide]	–	> 121 µM	1.85 µM	6.03 µM	CC50 at 168 h (in vitro; Dengue CC50): 21.7 µM
O=C(NCc1ccc(-c2cccnc2)cc1)c1nc[nH]c1C(=O)Nc1ccc(F)cc1 [15e, N^5-(4-fluorophenyl)-N^4-(4-(pyridin-3-yl)benzyl)-1H-imidazole-4,5-dicarboxamide]	> 120 µM	> 118 µM	11.8 µM	42.1 µM	–
O=C(NCc1ccc(-c2ccsc2)cc1)c1nc[nH]c1C(=O)Nc1ccc(F)cc1 [15f, N^5-(4-fluorophenyl)-N^4-(4-(thiophen-3-yl)benzyl)-1H-imidazole-4,5-dicarboxamide]	–	> 119 µM	28.8 µM	33.7 µM	CC50 at 168 h (in vitro; Dengue CC50): 20.2 µM
Cc1ccc(NC(=O)c2[nH]cnc2C(=O)Nc2ccc(C)cc2-c2ccsc2)cc1 [15k, N^4-(4-methyl-2-(thiophen-3-yl)phenyl)-N^5-(p-tolyl)-1H-imidazole-4,5-dicarboxamide]	> 50 µM	> 120 µM	> 120 µM	2.02 µM	–
O=C(Nc1ccc(F)cc1)c1nccnc1C(=O)Nc1ccccc1-c1cccnc1 [20e, N^2-(4-fluorophenyl)-N^3-(2-(pyridin-3-yl)phenyl) pyrazine-2,3-dicarboxamide]	> 120 µM	> 119 µM	47.5 µM	23.2 µM	–
Cc1ccc(NC(=O)c2nc[nH]c2C(=O)NCCc2ccc(F)cc2)c(-c2ccco2)c1 [15n, N^5-(4-fluorophenethyl)-N^4-(2-(furan-2-yl)-4-methylphenyl)-1H-imidazole-4,5-dicarboxamide]	> 116 µM	–	–	3.77 µM	–
O=C(Nc1ccc(F)cc1)c1nccnc1C(=O)Nc1ccccc1-c1ccncc1 [20d, N^2-(4-fluorophenyl)-N^3-(2-(pyridin-4-yl)phenyl) pyrazine-2,3-dicarboxamide]	> 117 µM	> 123 µM	8.22 µM	11.7 µM	–
O=C(NCc1ccc(-c2ccncc2)cc1)c1nccnc1C(=O)Nc1ccc(F)cc1 [20a, N^2-(4-fluorophenyl)-N^3-(4-(pyridin-4-yl)benzyl) pyrazine-2,3-dicarboxamide]	> 118 µM	> 120 µM	7.49 µM	0.93 µM	fold increase in anti-DENV potency (dengue virus (DENV)): 2 fold
Cc1ccc(NC(=O)c2nc[nH]c2C(=O)Nc2ccc(F)cc2)c(-c2cc(C)n[nH]2)c1 [15a, N^5-(4-fluorophenyl)-N^4-(4-methyl-2-(3-methyl-1H-pyrazol-5-yl)phenyl)-1H-imidazole-4,5-dicarboxamide]	> 120 µM	> 120 µM	3.37 µM	2.5 µM	EC50 (yellow fever virus (YFV)): 3.47 µM
Cc1ccc(NC(=O)c2[nH]cnc2C(=O)Nc2ccc(C)cc2-c2ccco2)cc1 [15l, N^4-(2-(furan-2-yl)-4-methylphenyl)-N^5-(p-tolyl)-1H-imidazole-4,5-dicarboxamide]	> 125 µM	–	–	3.47 µM	–
Cc1ccc(NC(=O)c2nc[nH]c2C(=O)Nc2ccc(F)cc2)c(-c2ccsc2)c1 [15h, N^5-(4-fluorophenyl)-N^4-(4-methyl-2-(thiophen-3-yl)phenyl)-1H-imidazole-4,5-dicarboxamide]	> 117 µM	> 119 µM	> 119 µM	48.8 µM	–
O=C(NCc1ccccc1-c1ccsc1)c1nc[nH]c1C(=O)Nc1ccc(F)cc1 [15d, N^5-(4-fluorophenyl)-N^4-(2-(thiophen-3-yl)benzyl)-1H-imidazole-4,5-dicarbox amide]	–	–	2.61 µM	8.88 µM	CC50 at 168 h (in vitro; Dengue CC50): 17.3 µM; CC50 at 168 h (in vitro; Yellow fever CC50): 34.5 µM
